The supplement of paper PMC10307832

compound: C1CSC2=C(C(=O)N1)SC3=C2C=C(C=C3)O [kb NB 142-70] + CC(=O)Nc1cccc(-n2c(=O)n(C3CC3)c(=O)c3c(Nc4ccc(I)cc4F)n(C)c(=O)c(C)c32)c1 [Trametinib] (partner 0.02 µM); assay: relative viability (nuclei count vs DMSO), 5 days (fraction); higher = more cells survive; conditions: first compound 0.1 µM
In short: (§1)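 Medians of duplicate plates are given as relative viability. That measure is the nuclei count in treated wells divided by the count in vehicle wells. Counts were taken on 4× images of lung cancer cell lines in 1536-well plates, 5 days after pin-tool dosing the day after seeding with one drug alone or a fixed anchor-drug dose plus five library-drug doses (not always all listed) in √10 steps.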

Row | Cell Line | relative viability
1 | NCI-H2342 | 0.804
2 | NCI-H727 | 0.419
3 | NCI-H1650 | 0.557
4 | NCI-H1993 | 0.479
5 | SW 1573 | 0.541
6 | NCI-H838 | 0.546
7 | LCLC-103H | 0.672
8 | NCI-H520 | 0.69
9 | NCI-H2126 | 0.593
10 | EMC-BAC-2 | 0.876
11 | NCI-H2085 | 0.515
12 | HCC-366 | 0.321
13 | NCI-H1666 | 0.842
14 | NCI-H596 | 0.792
15 | LK-2 | 0.814
16 | NCI-H2087 | 0.18
17 | NCI-H1648 | 0.459
18 | SK-MES-1 | 0.547

Row | Cell Line | relative viability
19 | H3255 | 0.585
20 | COR-L23 | 0.558
21 | COR-L 105 | 0.452
22 | LOU-NH91 | 0.754
23 | NCI-H2170 | 0.878
24 | NCI-H522 | 0.799
25 | SW 900 | 0.73
26 | NCI-H2009 | 0.284
27 | NCI-H661 | 0.532
28 | SK-LU-1 | 0.486
29 | NCI-H1395 | 1.02
30 | CAL-12T | 0.341
31 | NCI-H2228 | 0.696
32 | NCI-H2023 | 0.52
33 | NCI-H1793 | 0.399
34 | NCI-H1944 | 0.417
35 | NCI-H358 | 0.117

same assay, conditions: first compound 1 µM

Row | Cell Line | relative viability
36 | NCI-H2342 | 0.857
37 | NCI-H727 | 0.367
38 | NCI-H1650 | 0.507
39 | NCI-H1993 | 0.741
40 | SW 1573 | 0.475
41 | NCI-H838 | 0.525
42 | LCLC-103H | 0.654
43 | NCI-H520 | 0.618
44 | NCI-H2126 | 0.534
45 | EMC-BAC-2 | 0.917
46 | NCI-H2085 | 0.542
47 | HCC-366 | 0.274
48 | NCI-H1666 | 0.934
49 | NCI-H596 | 0.854
50 | LK-2 | 0.651
51 | NCI-H2087 | 0.263
52 | NCI-H1648 | 0.551
53 | SK-MES-1 | 0.631

Row | Cell Line | relative viability
54 | H3255 | 0.602
55 | COR-L23 | 0.588
56 | COR-L 105 | 0.426
57 | LOU-NH91 | 0.785
58 | NCI-H2170 | 0.958
59 | NCI-H522 | 0.617
60 | SW 900 | 1.05
61 | NCI-H2009 | 0.29
62 | NCI-H661 | 0.578
63 | SK-LU-1 | 0.548
64 | NCI-H1395 | 0.891
65 | CAL-12T | 0.39
66 | NCI-H2228 | 0.497
67 | NCI-H2023 | 0.559
68 | NCI-H1793 | 0.542
69 | NCI-H1944 | 0.444
70 | NCI-H358 | 0.103

same assay, conditions: first compound 3.162 µM

Row | Cell Line | relative viability
71 | NCI-H2342 | 0.903
72 | NCI-H727 | 0.316
73 | NCI-H1650 | 0.761
74 | NCI-H1993 | 0.485
75 | SW 1573 | 0.418
76 | NCI-H838 | 0.532
77 | LCLC-103H | 0.803
78 | NCI-H520 | 0.386
79 | NCI-H2126 | 0.473
80 | EMC-BAC-2 | 0.941
81 | NCI-H2085 | 0.325
82 | HCC-366 | 0.232
83 | NCI-H1666 | 0.776
84 | NCI-H596 | 0.65
85 | LK-2 | 0.729
86 | NCI-H2087 | 0.194
87 | NCI-H1648 | 0.417
88 | SK-MES-1 | 0.714

Row | Cell Line | relative viability
89 | H3255 | 0.593
90 | COR-L23 | 0.32
91 | COR-L 105 | 0.448
92 | LOU-NH91 | 0.657
93 | NCI-H2170 | 0.888
94 | NCI-H522 | 0.566
95 | SW 900 | 0.682
96 | NCI-H2009 | 0.263
97 | NCI-H661 | 0.567
98 | SK-LU-1 | 0.27
99 | NCI-H1395 | 1.02
100 | CAL-12T | 0.241
101 | NCI-H2228 | 0.235
102 | NCI-H2023 | 0.566
103 | NCI-H1793 | 0.463
104 | NCI-H1944 | 0.442
105 | NCI-H358 | 0.105

compound: C1CSC2=C(C(=O)N1)SC3=C2C=C(C=C3)O [kb NB 142-70] + CC(C)C[C@H](NC(=O)[C@H](Cc1ccccc1)NC(=O)c1cnccn1)B(O)O [Bortezomib] (partner 0.002 µM); assay: as above; conditions: first compound 0.1 µM
In short: as §1

Row | Cell Line | relative viability
106 | NCI-H727 | 0.897
107 | NCI-H1650 | 0.179
108 | EBC-1 | 0.592
109 | NCI-H1703 | 0.255
110 | NCI-H1993 | 1.14
111 | SW 1573 | 1.18
112 | NCI-H838 | 0.83
113 | LCLC-103H | 1.17
114 | NCI-H520 | 0.52
115 | NCI-H2126 | 1.11
116 | EMC-BAC-2 | 1.08
117 | NCI-H2085 | 1
118 | Calu-6 | 1.01
119 | HCC-366 | 1.07
120 | NCI-H1666 | 0.903
121 | NCI-H596 | 1

Row | Cell Line | relative viability
122 | NCI-H2087 | 0.821
123 | H3255 | 0.822
124 | COR-L23 | 0.872
125 | COR-L 105 | 0.871
126 | IA-LM | 0.765
127 | LOU-NH91 | 0.467
128 | NCI-H2009 | 1.09
129 | NCI-H661 | 0.808
130 | SK-LU-1 | 1.19
131 | NCI-H1299 | 1.01
132 | CAL-12T | 1.01
133 | NCI-H2228 | 1.08
134 | NCI-H2023 | 1.09
135 | NCI-H1563 | 0.921
136 | ABC-1 | 0.373

same assay, conditions: first compound 1 µM

Row | Cell Line | relative viability
137 | NCI-H727 | 1.1
138 | NCI-H1650 | 0.206
139 | EBC-1 | 0.546
140 | NCI-H1703 | 0.361
141 | NCI-H1993 | 1.07
142 | SW 1573 | 0.967
143 | NCI-H838 | 0.777
144 | LCLC-103H | 1.09
145 | NCI-H520 | 0.541
146 | NCI-H2126 | 1.14
147 | EMC-BAC-2 | 1.07
148 | NCI-H2085 | 1
149 | Calu-6 | 0.946
150 | HCC-366 | 0.926
151 | NCI-H1666 | 0.713
152 | NCI-H596 | 1.07
153 | NCI-H2087 | 0.88
